Where a SMILES comes first, the peptide text is derived from it. [ ]: non-standard residue; d: D form. The star is where a group is joined. NHCH2CH2OH = OCCN*; For = O=C*
Experiments:
[1] = system: P388 mouse leukemia cells; conditions: 92 h
Outline: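 P388 cells at 1 × 10^4 cells/mL (final) were exposed to library peptides (stocks diluted 250-fold in RPMI1640/10% FBS) for 92 h at 37 °C, 5% CO2. Viable cells were counted by WST-1/1-methoxy PMS (4 h), absorbance 415 nm, and expressed as cell viability (%).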

[2] = system: Streptococcus pyogenes SSI-9; assay: Antibacterial activity assay of bead-derived peptides (three concentrations); type: cell-based; parameters: key: +++: inhibition by the 640-fold diluted peptide solution; ++: inhibition by the 160-fold diluted solution; +: inhibition by the 40-fold diluted solution; -: no inhibition; conditions: S. pyogenes, bead-derived peptide solution, three concentrations
Outline: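 Library peptide stock applied undiluted, 4-fold and 16-fold diluted in DMSO to S. pyogenes SSI-9 (2 × 10^5 CFU) in cation-adjusted Mueller Hinton broth with 5% laked horse blood. After 18 h at 37 °C, growth judged by visible cell precipitation.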

[3] = H+/Na+ transport assay of bead-derived peptides (one-point); type: biochemical; parameters: key: relative activity; mean of two control wells = 1.00; conditions: bead-derived peptide solution, EYPC/EYPG LUVs;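 also: relative to parent gramicidin A activity set to 1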
Outline: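 H+/Na+ transport is monitored through pyranine fluorescence in freshly extruded LUVs after a 30-min room-temperature vortex with each library peptide at a single concentration. Signals are normalized to detergent (Triton X-100) and untreated controls.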

Structure (SMILES) | cell viability/% [1] [%] | antibacterial activity [2] | H+/Na+ transport activity normalized against the value of 1 (1.00) [3]
CC(C)C[C@@H](NC(=O)[C@H](C)NC(=O)CNC(=O)[C@@H](NC=O)C(C)C)C(=O)N[C@@H](C)C(=O)N[C@@H](C(=O)N[C@H](C(=O)N[C@@H](C(=O)N[C@@H](Cc1c[nH]c2ccccc12)C(=O)N[C@@H](C(=O)N[C@@H](Cc1c[nH]c2ccccc12)C(=O)N[C@@H](C(=O)N[C@@H](Cc1c[nH]c2ccccc12)C(=O)N[C@@H](C(=O)N[C@@H](Cc1c[nH]c2ccccc12)C(=O)NCCO)C(C)C)C(C)C)C(C)C)[C@H](C)O)C(C)C)C(C)C [compound 12429] (For-VGA[dL]A[dV]V[dT]W[dV]W[dV]W[dV]W-NHCH2CH2OH) | 100.0 | - | 1.03
CC(C)C[C@@H](NC(=O)[C@H](C)NC(=O)[C@H](NC(=O)[C@H](C)NC(=O)CNC(=O)[C@@H](NC=O)C(C)C)[C@H](C)O)C(=O)N[C@H](C(=O)N[C@H](CC(C)C)C(=O)N[C@@H](Cc1c[nH]c2ccccc12)C(=O)N[C@@H](C(=O)N[C@@H](Cc1c[nH]c2ccccc12)C(=O)N[C@H](CC(C)C)C(=O)N[C@@H](Cc1c[nH]c2ccccc12)C(=O)N[C@@H](C(=O)N[C@@H](Cc1c[nH]c2ccccc12)C(=O)NCCO)C(C)C)[C@H](C)O)C(C)C [compound 6248] (For-VGA[dT]A[dL]V[dL]W[dT]W[dL]W[dV]W-NHCH2CH2OH) | 87.7 | - | 1.10
CC(C)C[C@@H](NC(=O)[C@H](Cc1c[nH]c2ccccc12)NC(=O)[C@H](NC(=O)[C@H](Cc1c[nH]c2ccccc12)NC(=O)[C@H](NC(=O)[C@H](Cc1c[nH]c2ccccc12)NC(=O)[C@@H](CC(C)C)NC(=O)[C@@H](NC(=O)[C@H](NC(=O)[C@H](C)NC(=O)[C@H](NC(=O)[C@H](C)NC(=O)CNC(=O)[C@@H](NC=O)C(C)C)C(C)C)C(C)C)C(C)C)C(C)C)C(C)C)C(=O)N[C@@H](Cc1c[nH]c2ccccc12)C(=O)NCCO [compound 97] (For-VGA[dV]A[dV]V[dL]W[dV]W[dV]W[dL]W-NHCH2CH2OH) | 59.7 | + | 1.24
CC(C)C[C@@H](NC(=O)[C@H](C)NC(=O)[C@H](NC(=O)[C@H](C)NC(=O)CNC(=O)[C@@H](NC=O)C(C)C)C(C)C)C(=O)N[C@H](C(=O)N[C@H](CC(C)C)C(=O)N[C@@H](Cc1c[nH]c2ccccc12)C(=O)N[C@H](CC(C)C)C(=O)N[C@@H](Cc1c[nH]c2ccccc12)C(=O)N[C@H](CC(C)C)C(=O)N[C@@H](Cc1c[nH]c2ccccc12)C(=O)N[C@H](CC(C)C)C(=O)N[C@@H](Cc1c[nH]c2ccccc12)C(=O)NCCO)C(C)C [compound 1343] (For-VGA[dV]A[dL]V[dL]W[dL]W[dL]W[dL]W-NHCH2CH2OH) | 4.0 | - | 1.02
CC(C)C[C@@H](NC(=O)[C@H](C)NC(=O)CNC(=O)[C@@H](NC=O)C(C)C)C(=O)N[C@@H](C)C(=O)N[C@H](CC(C)C)C(=O)N[C@H](C(=O)N[C@H](CC(C)C)C(=O)N[C@@H](Cc1c[nH]c2ccccc12)C(=O)N[C@H](CC(C)C)C(=O)N[C@@H](Cc1c[nH]c2ccccc12)C(=O)N[C@H](CC(C)C)C(=O)N[C@@H](Cc1c[nH]c2ccccc12)C(=O)N[C@@H](C(=O)N[C@@H](Cc1c[nH]c2ccccc12)C(=O)NCCO)C(C)C)C(C)C [compound 6639] (For-VGA[dL]A[dL]V[dL]W[dL]W[dL]W[dV]W-NHCH2CH2OH) | 0.0 | + | 1.01
CC(C)C[C@@H](NC(=O)[C@H](C)NC(=O)CNC(=O)[C@@H](NC=O)C(C)C)C(=O)N[C@@H](C)C(=O)N[C@@H](C(=O)N[C@H](C(=O)N[C@H](CC(C)C)C(=O)N[C@@H](Cc1c[nH]c2ccccc12)C(=O)N[C@@H](C(=O)N[C@@H](Cc1c[nH]c2ccccc12)C(=O)N[C@H](CC(C)C)C(=O)N[C@@H](Cc1c[nH]c2ccccc12)C(=O)N[C@@H](C(=O)N[C@@H](Cc1c[nH]c2ccccc12)C(=O)NCCO)[C@H](C)O)C(C)C)C(C)C)C(C)C [compound 5058] (For-VGA[dL]A[dV]V[dL]W[dV]W[dL]W[dT]W-NHCH2CH2OH) | 100.0 | - | 1.02
CNC(=O)C[C@@H](NC(=O)[C@@H](NC(=O)[C@H](NC(=O)[C@H](C)NC(=O)[C@@H](CC(C)C)NC(=O)[C@H](C)NC(=O)CNC(=O)[C@@H](NC=O)C(C)C)C(C)C)C(C)C)C(=O)N[C@@H](Cc1c[nH]c2ccccc12)C(=O)N[C@@H](C(=O)N[C@@H](Cc1c[nH]c2ccccc12)C(=O)N[C@H](CC(C)C)C(=O)N[C@@H](Cc1c[nH]c2ccccc12)C(=O)N[C@H](CC(C)C)C(=O)N[C@@H](Cc1c[nH]c2ccccc12)C(=O)NCCO)C(C)C [compound 7808] (For-VGA[dL]A[dV]V[dD](NHMe)W[dV]W[dL]W[dL]W-NHCH2CH2OH) | 100.0 | - | 1.21
CC(C)C[C@@H](NC(=O)[C@H](C)NC(=O)CNC(=O)[C@@H](NC=O)C(C)C)C(=O)N[C@@H](C)C(=O)N[C@@H](C(=O)N[C@H](C(=O)N[C@@H](C(=O)N[C@@H](Cc1c[nH]c2ccccc12)C(=O)N[C@H](CC(C)C)C(=O)N[C@@H](Cc1c[nH]c2ccccc12)C(=O)N[C@H](CC(C)C)C(=O)N[C@@H](Cc1c[nH]c2ccccc12)C(=O)N[C@H](CC(C)C)C(=O)N[C@@H](Cc1c[nH]c2ccccc12)C(=O)NCCO)C(C)C)C(C)C)C(C)C [compound 12972] (For-VGA[dL]A[dV]V[dV]W[dL]W[dL]W[dL]W-NHCH2CH2OH) | 0.0 | ++ | 1.33
CC(C)C[C@@H](NC(=O)[C@H](C)NC(=O)CNC(=O)[C@@H](NC=O)C(C)C)C(=O)N[C@@H](C)C(=O)N[C@H](CC(C)C)C(=O)N[C@H](C(=O)N[C@@H](C(=O)N[C@@H](Cc1c[nH]c2ccccc12)C(=O)N[C@@H](C(=O)N[C@@H](Cc1c[nH]c2ccccc12)C(=O)N[C@@H](C(=O)N[C@@H](Cc1c[nH]c2ccccc12)C(=O)N[C@H](CC(C)C)C(=O)N[C@@H](Cc1c[nH]c2ccccc12)C(=O)NCCO)C(C)C)C(C)C)C(C)C)C(C)C [compound 12040] (For-VGA[dL]A[dL]V[dV]W[dV]W[dV]W[dL]W-NHCH2CH2OH) | 100.0 | + | 1.07
CC(C)C[C@@H](NC(=O)[C@H](C)NC(=O)CNC(=O)[C@@H](NC=O)C(C)C)C(=O)N[C@@H](C)C(=O)N[C@@H](C(=O)N[C@H](C(=O)N[C@H](CC(C)C)C(=O)N[C@@H](Cc1c[nH]c2ccccc12)C(=O)N[C@H](CC(C)C)C(=O)N[C@@H](Cc1c[nH]c2ccccc12)C(=O)N[C@@H](C(=O)N[C@@H](Cc1c[nH]c2ccccc12)C(=O)N[C@H](CC(C)C)C(=O)N[C@@H](Cc1c[nH]c2ccccc12)C(=O)NCCO)C(C)C)C(C)C)[C@H](C)O [compound 9676] (For-VGA[dL]A[dT]V[dL]W[dL]W[dV]W[dL]W-NHCH2CH2OH) | 100.0 | - | 1.05

From publication PMC7531004, “Discovery of gramicidin A analogues with altered activities by multidimensional screening of a one-bead-one-compound library” (Nature Communications, 2020)
